Biological target: T1, SMARCA2 (Homo sapiens, UniProt P51531)
T1 construct: endogenous in cells; host or cells: HT1080 (CRISPR HiBiT knock-in clone, generated in house)
Assay: SMARCA2 HiBiT degradation assay (cellular)
Assay type: cell-based
Details: table head names A549; for DC50: 6 h incubation, HiBiT-tagged SMARCA2, luminescence read-out, read-out: HiBit A549 SMARCA2 IP (nM) 6 h; for Emax: A549, 6 h incubation, Emax = amount of residual protein remaining in the cell following compound treatment

T1 sequence (P51531 whole entry): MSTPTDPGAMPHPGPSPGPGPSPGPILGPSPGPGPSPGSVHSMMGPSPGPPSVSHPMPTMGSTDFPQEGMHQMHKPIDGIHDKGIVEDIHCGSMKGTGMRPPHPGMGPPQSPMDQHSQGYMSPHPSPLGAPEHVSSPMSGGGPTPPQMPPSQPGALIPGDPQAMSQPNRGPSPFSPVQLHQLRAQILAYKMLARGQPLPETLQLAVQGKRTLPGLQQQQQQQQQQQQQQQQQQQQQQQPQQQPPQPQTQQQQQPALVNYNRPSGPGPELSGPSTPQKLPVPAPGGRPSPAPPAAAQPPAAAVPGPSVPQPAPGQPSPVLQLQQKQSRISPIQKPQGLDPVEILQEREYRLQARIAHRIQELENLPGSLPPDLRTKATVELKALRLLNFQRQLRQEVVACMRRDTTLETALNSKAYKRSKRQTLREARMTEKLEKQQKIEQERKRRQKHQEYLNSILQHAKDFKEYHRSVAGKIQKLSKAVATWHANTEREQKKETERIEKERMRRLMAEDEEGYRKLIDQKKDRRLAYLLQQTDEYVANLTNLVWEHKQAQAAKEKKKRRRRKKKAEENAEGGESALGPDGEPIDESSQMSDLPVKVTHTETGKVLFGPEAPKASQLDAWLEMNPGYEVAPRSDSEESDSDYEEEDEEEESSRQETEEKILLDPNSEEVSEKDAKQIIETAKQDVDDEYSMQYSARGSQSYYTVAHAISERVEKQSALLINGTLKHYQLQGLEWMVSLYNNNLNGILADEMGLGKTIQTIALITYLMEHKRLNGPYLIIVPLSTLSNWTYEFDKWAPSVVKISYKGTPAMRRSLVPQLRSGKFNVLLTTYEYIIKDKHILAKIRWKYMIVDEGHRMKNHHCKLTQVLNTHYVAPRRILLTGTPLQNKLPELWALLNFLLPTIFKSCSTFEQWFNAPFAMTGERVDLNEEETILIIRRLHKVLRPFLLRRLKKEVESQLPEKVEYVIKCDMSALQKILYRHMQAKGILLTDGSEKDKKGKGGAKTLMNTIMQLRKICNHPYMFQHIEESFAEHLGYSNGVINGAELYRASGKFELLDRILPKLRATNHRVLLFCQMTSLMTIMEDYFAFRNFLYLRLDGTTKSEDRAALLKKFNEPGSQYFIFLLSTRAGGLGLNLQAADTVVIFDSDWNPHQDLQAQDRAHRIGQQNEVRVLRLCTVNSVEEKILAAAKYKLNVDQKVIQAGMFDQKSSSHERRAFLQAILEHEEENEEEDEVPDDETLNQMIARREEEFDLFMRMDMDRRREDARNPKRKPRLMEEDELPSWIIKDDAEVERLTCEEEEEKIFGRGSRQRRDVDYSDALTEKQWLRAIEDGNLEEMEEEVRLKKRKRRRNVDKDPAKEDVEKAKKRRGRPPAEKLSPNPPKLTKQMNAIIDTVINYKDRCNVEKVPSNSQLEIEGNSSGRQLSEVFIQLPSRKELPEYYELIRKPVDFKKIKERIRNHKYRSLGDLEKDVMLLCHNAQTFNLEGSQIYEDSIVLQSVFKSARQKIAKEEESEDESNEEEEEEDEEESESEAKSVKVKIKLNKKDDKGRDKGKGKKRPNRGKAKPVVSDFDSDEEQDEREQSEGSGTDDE

| SMILES | DC50 [nM] | Emax [%] |
| --- | --- | --- |
| Nc1nnc(-c2ccccc2O)cc1N1CCC(C(=O)NCC2CCN(C(=O)CN3CCC(c4ccc(OC5CCC(=O)NC5=O)cc4)CC3)CC2)(c2ccccc2)CC1 (stereo not shown) [Example 101, 1-(3-amino-6-(2-hydroxyphenyl)pyridazin-4-yl)-N-((1-(2-(4-(4-((2,6-dioxopiperidin-3-yl)oxy)phenyl)piperidin-1-yl)acetyl)piperidin-4-yl)methyl)-4-phenylpiperidine-4-carboxamide] | 102 | 28 |
| Nc1nnc(-c2ccccc2O)cc1N1CCC(C(=O)N2CCC(C(=O)N3CCN(c4ccc(C5CCC(=O)NC5=O)cc4)CC3)CC2)(c2ccccc2)CC1 (stereo not shown) [Example 176, 3-(4-(4-(1-(1-(3-amino-6-(2-hydroxyphenyl)pyridazin-4-yl)-4-phenylpiperidine-4-carbonyl)piperidine-4-carbonyl)piperazin-1-yl)phenyl)piperidine-2,6-dione] |  | 31 |
| Nc1nnc(-c2ccccc2O)cc1N1CCC(C(=O)N2CCC3(CC2)CN(C(=O)CCCN2CCC(c4ccc(OC5CCC(=O)NC5=O)cc4)CC2)CCO3)(c2ccccc2)CC1 (stereo not shown) [Example 181, 3-(4-(1-(4-(9-(1-(3-amino-6-(2-hydroxyphenyl)pyridazin-4-yl)-4-phenylpiperidine-4-carbonyl)-1-oxa-4,9-diazaspiro[5.5]undecan-4-yl)-4-oxobutyl)piperidin-4-yl)phenoxy)piperidine-2,6-dione] | 99 | 56 |
| CN(c1cccc2c1C(=O)N(C1CCC(=O)NC1=O)C2=O)C1CCN(C(=O)CCC(=O)N2CCN(CCOc3cccc(N4C5CCC4CN(c4cc(-c6ccccc6O)nnc4N)C5)c3)CC2)CC1 (racemic) [Example 21, rac-4-[[1-[4-[4-[2-[3-[3-[3-amino-6-(2-hydroxyphenyl)pyridazin-4-yl]-3,8-diazabicyclo[3.2.1]octan-8-yl]phenoxy]ethyl]piperazin-1-yl]-4-oxo-butanoyl]-4-piperidyl]-methyl-amino]-2-(2,6-dioxo-3-piperidyl)isoindoline-1,3-dione] | 118 | 29 |
| Nc1nnc(-c2ccccc2O)cc1O[C@H]1CCCN(c2ccc(N3CCN(CCCCC(=O)N4CCC(Cn5cc(COc6cccc7c6C(=O)N(C6CCC(=O)NC6=O)C7=O)nn5)CC4)CC3)cc2)C1 (mixture of isomers) [Example 135, 2-(2,6-dioxo-3-piperidyl)-4-[[1-[[1-[5-[4-[4-[rac-(3S)-3-[3-amino-6-(2-hydroxyphenyl)pyridazin-4-yl]oxy-1-piperidyl]phenyl]piperazin-1-yl]pentanoyl]-4-piperidyl]methyl]triazol-4-yl]methoxy]isoindoline-1,3-dione] | 382 | 35 |
| Nc1nnc(-c2ccccc2O)cc1N1CC2CCC(C1)N2c1cccc(OCCN2CCN(C(=O)C3CCN(c4cccc5c4C(=O)N(C4CCC(=O)NC4=O)C5=O)CC3)CC2)c1 (racemic) [Example 13, rac-4-[4-[4-[2-[3-[3-[3-amino-6-(2-hydroxyphenyl)pyridazin-4-yl]-3,8-diazabicyclo[3.2.1]octan-8-yl]phenoxy]ethyl]piperazine-1-carbonyl]-1-piperidyl]-2-(2,6-dioxo-3-piperidyl)isoindoline-1,3-dione] | 32 | 64 |
| Nc1nnc(-c2ccccc2O)cc1N1CC2CCC(C1)N2c1cccc(OC2CCN(C(=O)C3CCN(c4ccc5c(c4)C(=O)N(C4CCC(=O)NC4=O)C5=O)CC3)CC2)c1 (racemic) [Example 113, rac-5-[4-[4-[3-[3-[3-amino-6-(2-hydroxyphenyl)pyridazin-4-yl]-3,8-diazabicyclo[3.2.1]octan-8-yl]phenoxy]piperidine-1-carbonyl]-1-piperidyl]-2-(2,6-dioxo-3-piperidyl)isoindoline-1,3-dione] | 19 | 35 |
| Nc1nnc(-c2ccccc2O)cc1N1CC(Oc2cccc(CN3CCN(C(=O)CCCCCCCCCNc4cccc5c4C(=O)N(C4CCC(=O)NC4=O)C5=O)CC3)c2)C1 (stereo not shown) [Example 32, 4-[[10-[4-[[3-[1-[3-amino-6-(2-hydroxyphenyl)pyridazin-4-yl]azetidin-3-yl]oxyphenyl]methyl]piperazin-1-yl]-10-oxo-decyl]amino]-2-(2,6-dioxo-3-piperidyl)isoindoline-1,3-dione] | 281 | 62 |
| Nc1nnc(-c2ccccc2O)cc1N1CC2CCC(C1)N2c1cccc(OCCN2CCN(CCOC3CCN(c4ccc5c(c4)C(=O)N(C4CCC(=O)NC4=O)C5=O)CC3)CC2)c1 (racemic) [Example 35, rac-5-[4-[2-[4-[2-[3-[3-[3-amino-6-(2-hydroxyphenyl)pyridazin-4-yl]-3,8-diazabicyclo[3.2.1]octan-8-yl]phenoxy]ethyl]piperazin-1-yl]ethoxy]-1-piperidyl]-2-(2,6-dioxo-3-piperidyl)isoindoline-1,3-dione] | 22 | 33 |
| Nc1nnc(-c2ccccc2O)cc1N1CCN(c2ccccc2)C(C(=O)NCC2CCC(NC(=O)C3CCN(c4ccc5c(c4)C(=O)N(C4CCC(=O)NC4=O)C5=O)CC3)CC2)C1 (stereo not shown) [Example 85, 4-[3-amino-6-(2-hydroxyphenyl)pyridazin-4-yl]-N-[[4-[[1-[2-(2,6-dioxopiperidin-3-yl)-1,3-dioxoisoindol-5-yl]piperidine-4-carbonyl]amino]cyclohexyl]methyl]-1-phenylpiperazine-2-carboxamide] | 92 | 43 |
| Nc1nnc(-c2ccccc2O)cc1N1CC2CCC(C1)N2c1cccc(OCCN2CCN(CC3CCN(c4ccc5c(c4)C(=O)N(C4CCC(=O)NC4=O)C5=O)CC3)CC2)c1 (racemic) [Example 38, rac-5-[4-[[4-[2-[3-[3-[3-amino-6-(2-hydroxyphenyl)pyridazin-4-yl]-3,8-diazabicyclo[3.2.1]octan-8-yl]phenoxy]ethyl]piperazin-1-yl]methyl]-1-piperidyl]-2-(2,6-dioxo-3-piperidyl)isoindoline-1,3-dione] | 20 | 29 |
| Nc1nnc(-c2ccccc2O)cc1N1CC2CCC(C1)N2c1cccc(OCCN2CCN(C(=O)N3CCC(Oc4cccc5c4C(=O)N(C4CCC(=O)NC4=O)C5=O)CC3)CC2)c1 (racemic) [Example 41, rac-4-[[1-[4-[2-[3-[3-[3-amino-6-(2-hydroxyphenyl)pyridazin-4-yl]-3,8-diazabicyclo[3.2.1]octan-8-yl]phenoxy]ethyl]piperazine-1-carbonyl]-4-piperidyl]oxy]-2-(2,6-dioxo-3-piperidyl)isoindoline-1,3-dione] | 46 | 48 |
| Nc1nnc(-c2ccccc2O)cc1OC1CCCN(c2ccc(N3CCN(C(=O)CCCCCCCCCCCn4cc(CNc5cccc6c5C(=O)N(C5CCC(=O)NC5=O)C6=O)nn4)CC3)cc2)C1 (stereo not shown) [Example 4, 4-[[1-[12-[4-[4-[3-[3-amino-6-(2-hydroxyphenyl)pyridazin-4-yl]oxy-1-piperidyl]phenyl]piperazin-1-yl]-12-oxo-dodecyl]triazol-4-yl]methylamino]-2-(2,6-dioxo-3-piperidyl)isoindoline-1,3-dione] | 149 | 44 |
| Nc1nnc(-c2ccccc2O)cc1N1CCC(NC(=O)CCCN2CCC(c3ccc(NC4CCC(=O)NC4=O)cc3)CC2)(c2ccccc2)CC1 (stereo not shown) [Example 91, N-[1-[3-amino-6-(2-hydroxyphenyl)pyridazin-4-yl]-4-phenyl-4-piperidyl]-4-[4-[4-[(2,6-dioxo-3-piperidyl)amino]phenyl]-1-piperidyl]butanamide] | 90 | 46 |
| Nc1nnc(-c2ccccc2O)cc1N1CCC(CNC(=O)CCNc2cccc3c2C(=O)N(C2CCC(=O)NC2=O)C3=O)(c2ccccc2)CC1 (stereo not shown) [Example 75, N-((1-(3-amino-6-(2-hydroxyphenyl)pyridazin-4-yl)-4-phenylpiperidin-4-yl)methyl)-3-((2-(2,6-dioxopiperidin-3-yl)-1,3-dioxoisoindolin-4-yl)amino)] | 1430 | 63 |
| Nc1nnc(-c2ccccc2O)cc1N1CC(Oc2cccc(C(=O)N3CCN(C(=O)CCCCCCCCCNc4cccc5c4C(=O)N(C4CCC(=O)NC4=O)C5=O)CC3)c2)C1 (stereo not shown) [Example 146, 4-[[10-[4-[3-[1-[3-amino-6-(2-hydroxyphenyl)pyridazin-4-yl]azetidin-3-yl]oxybenzoyl]piperazin-1-yl]-10-oxo-decyl]amino]-2-(2,6-dioxo-3-piperidyl)isoindoline-1,3-dione] | 126 | 41 |
| Nc1nnc(-c2ccccc2O)cc1N1CC2CCC(C1)N2c1cccc(OCCN2CCN(C(=O)CCCCCNc3cccc4c3C(=O)N(C3CCC(=O)NC3=O)C4=O)CC2)c1 (racemic) [Example 12, rac-4-[[6-[4-[2-[3-[3-[3-amino-6-(2-hydroxyphenyl)pyridazin-4-yl]-3,8-diazabicyclo[3.2.1]octan-8-yl]phenoxy]ethyl]piperazin-1-yl]-6-oxo-hexyl]amino]-2-(2,6-dioxo-3-piperidyl)isoindoline-1,3-dione] | 60 | 55 |
| Nc1nnc(-c2ccccc2O)cc1N1CC2CCC(C1)N2c1cccc(CN2CCC(C(=O)N3C[C@@H]4CN(c5ccc6c(c5)C(=O)N(C5CCC(=O)NC5=O)C6=O)C[C@@H]4C3)CC2)c1 (relative stereo) [Example 171, rac-2-(2,6-dioxo-3-piperidyl)-5-[rel-(3aR,6aS)-5-[1-[[3-[3-[3-amino-6-(2-hydroxyphenyl)pyridazin-4-yl]-3,8-diazabicyclo[3.2.1]octan-8-yl]phenyl]methyl]piperidine-4-carbonyl]-1,3,3a,4,6,6a-hexahydropyrrolo[3,4-c]pyrrol-2-yl]isoindoline-1,3-dione] | 66 | 40 |
| Nc1nnc(-c2ccccc2O)cc1N1CC2CCC(C1)N2c1cccc(CN2CCN(C(=O)CN3CCN(c4ccc(OC5CCC(=O)NC5=O)cc4)CC3)CC2)c1 (racemic) [Example 195, rac-3-[4-[4-[2-[4-[[3-[3-[3-Amino-6-(2-hydroxyphenyl)pyridazin-4-yl]-3,8-diazabicyclo[3.2.1]octan-8-yl]phenyl]methyl]piperazin-1-yl]-2-oxo-ethyl]piperazin-1-yl]phenoxy]piperidine-2,6-dione] | 72 | 60 |

— patent US20230024096A1, “BIFUNCTIONAL COMPOUNDS FOR THE TREATMENT OF CANCER” (Hoffmann-La Roche Inc., priority 2019, published 2023)
